Earlier results on one compound are cited in US20090175941A1, “Tablet-form slow-release preparation for vertigo” (priority 2005, published 2009).

Each structure is given as a SMILES string.

`C(=C\c1ccccc1)/CN1CCN(C(c2ccccc2)c2ccccc2)CC1` [cinnarizine, 1-benzhydryl-4-trans-cinnamylpiperazine]: the solubility in water result is “approximately 2 mg/100 ml”.
